Measurements published in PMC11054269, “Synergistic Biomedical Potential and Molecular Docking Analyses of Coumarin–Triazole Hybrids as Tyrosinase Inhibitors: Design, Synthesis, In Vitro Profiling, and In Silico Studies” (Pharmaceuticals, 2024).
Values joined by “and” are separate entries in the source; they are usually repeats but may differ in a detail not shown here. Equal entries are not always repeated. Where two headings read alike, the source gives them in different places. Values belong to the compound of their own block, whether it stands above or below them.

Experiments:
tyrosinase = assay: spectrophotometric tyrosinase inhibition assay with L-DOPA as substrate; type: biochemical, Bacillus subtilis NCTC 10400; details: for %Age Inhibition: test concentration not given
Method: The synthesized coumarin–triazole hybrids were subjected to spectrophotometric assay for tyrosinase by employing […]. The tyrosine enzyme was extracted from Bacillus subtilis NCTC 10400. The anti-tyrosinase potential of all the coumarin–triazole hybrids was screened by using L-DOPA (levodopa) as the substrate. All the coumarin derivatives were dissolved in DMSO. […] The coumarin derivatives along with the tyrosine enzyme (0.5 mg/mL) were pre-incubated for 10 min in buffer at 25 °C. Pre-incubation of tyrosinase and coumarin derivative was followed by the addition of levodopa (0.5 mM), and the reaction was monitored by absorbance measurement at 475 nm. The IC50 values were calculated by interpolation of the dose–response curves. The following formula was applied to calculate the percentage inhibition of tyrosinase:%age Inhibition = (B − S/B) × 100 where S and B are the absorbance values for the sample and blank, respectively.

[1] = L-DOPA 0.5 mM, pH 6.8, 25 °C, means ± SEs (n = 3), read-out: IC50
[2] = L-DOPA substrate, unit inferred, read-out: IC50 (unit inferred)

Structure (SMILES): Cc1cc(=O)oc2cc(OC(=O)CSc3nnc(-c4cc5ccccc5o4)n3-c3ccccc3)ccc12 [Compound 17a, 4-Methyl-2-oxo-2H-chromen-7-yl-2-((5-(benzofuran-2-yl)-4-phenyl-4H-1,2,4-triazol-3-yl)thio)acetate]
IC50 (tyrosinase; [1]): 8.13 ± 0.13 µM
%Age Inhibition (tyrosinase; L-DOPA 0.5 mM, pH 6.8, 25 °C): 12.023 ± 0.21% and 12.02 ± 0.21%
IC50 (tyrosinase; [2]): 8.14 ± 0.13 µM
melting point: 152 °C

Structure (SMILES): COc1cccc2cc(-c3nnc(SCC(=O)Oc4ccc5c(C)cc(=O)oc5c4)n3-c3ccccc3)oc12 [Compound 17b, 4-Methyl-2-oxo-2H-chromen-7-yl-2-((5-(7-methoxybenzofuran-2-yl)-4-phenyl-4H-1,2,4-triazol-3-yl)thio)acetate]
IC50 (tyrosinase; [1]): 14.1 ± 0.17 µM
%Age Inhibition (tyrosinase; L-DOPA 0.5 mM, pH 6.8, 25 °C): 6.3009 ± 0.14% and 6.30 ± 0.14%
IC50 (tyrosinase; [2]): 14.1 ± 0.17 µM
melting point: 140 °C

Structure (SMILES): COc1ccc(-n2c(SCC(=O)Oc3ccc4c(C)cc(=O)oc4c3)nnc2-c2cc3cccc(OC)c3o2)cc1 [Compound 17c, 4-Methyl-2-oxo-2H-chromen-7-yl-2-((5-(7-methoxybenzofuran-2-yl)-4-(4-methoxyphenyl)-4H-1,2,4-triazol-3-yl)thio)acetate]
IC50 (tyrosinase; [1]): 13 ± 0.32 µM
%Age Inhibition (tyrosinase; L-DOPA 0.5 mM, pH 6.8, 25 °C): 5.11 ± 0.15%
IC50 (tyrosinase; [2]): 13 ± 0.32 µM
melting point: 137 °C

Structure (SMILES): Cc1cc(=O)oc2cc(OC(=O)CSc3nnc(-c4cc5cc(Br)ccc5o4)n3-c3ccccc3)ccc12 [Compound 17d, 4-Methyl-2-oxo-2H-chromen-7-yl-2-((5-(5-bromobenzofuran-2-yl)-4-phenyl-4H-1,2,4-triazol-3-yl)thio)acetate]
IC50 (tyrosinase; [1]): 5.89 ± 0.09 µM
%Age Inhibition (tyrosinase; L-DOPA 0.5 mM, pH 6.8, 25 °C): 23.097 ± 0.13% and 23.09 ± 0.13%
IC50 (tyrosinase; [2]): 5.89 ± 0.09 µM
melting point: 232 °C

Continued, values first:

IC50 (tyrosinase; [1]): 0.339 µM and 0.33 µM
%Age Inhibition (tyrosinase; L-DOPA 0.5 mM, pH 6.8, 25 °C): 30.85 ± 0.15%
IC50 (tyrosinase; [2]): 0.339 ± 0.08 µM
melting point: 220 °C
Structure (SMILES): COc1ccc(-n2c(SCC(=O)Oc3ccc4c(C)cc(=O)oc4c3)nnc2-c2cc3cc(Br)ccc3o2)cc1 [Compound 17e, 4-Methyl-2-oxo-2H-chromen-7-yl-2-((5-(5-bromobenzofuran-2-yl)-4-(4-methoxyphenyl)-4H-1,2,4-triazol-3-yl)thio)acetate]

IC50 (tyrosinase; [1]): 3.15 µM and 3.14 µM
%Age Inhibition (tyrosinase; L-DOPA 0.5 mM, pH 6.8, 25 °C): 36.134 ± 0.21% and 36.13 ± 0.21%
IC50 (tyrosinase; [2]): 3.15 ± 0.23 µM
melting point: 226 °C
Structure (SMILES): Cc1cc(=O)oc2cc(OC(=O)CSc3nnc(-c4cc5cc(Cl)ccc5o4)n3-c3ccccc3)ccc12 [Compound 17f, 4-Methyl-2-oxo-2H-chromen-7-yl-2-((5-(5-chlorobenzofuran-2-yl)-4-phenyl-4H-1,2,4-triazol-3-yl)thio)acetate]

IC50 (tyrosinase; [1]): 3.98 µM
%Age Inhibition (tyrosinase; L-DOPA 0.5 mM, pH 6.8, 25 °C): 31.0609 ± 0.19% and 31.060 ± 0.19%
IC50 (tyrosinase; [2]): 3.98 ± 0.12 µM
melting point: 200 °C
Structure (SMILES): COc1ccc(-n2c(SCC(=O)Oc3ccc4c(C)cc(=O)oc4c3)nnc2-c2cc3cc(Cl)ccc3o2)cc1 [Compound 17g, 4-Methyl-2-oxo-2H-chromen-7-yl2-((5-(5-chlorobenzofuran-2-yl)-4-(4-methoxyphenyl)-4H-1,2,4-triazol-3-yl)thio)acetate]

IC50 (tyrosinase; [1]): 5.13 ± 0.05 µM
%Age Inhibition (tyrosinase; L-DOPA 0.5 mM, pH 6.8, 25 °C): 30.62 ± 0.33%
Structure (SMILES): Cc1cc(=O)oc2cc(OC(=O)CSc3nnc(-c4cc5c(ccc6ccccc65)o4)n3-c3ccccc3)ccc12 [Compound 17h, 4-Methyl-2-oxo-2H-chromen-7-yl-2-((5-(naphtho[2,1-b]furan-2-yl)-4-phenyl-4H-1,2,4-triazol-3-yl)thio)acetate]

%Age Inhibition (tyrosinase; L-DOPA 0.5 mM, pH 6.8, 25 °C): 6.79 ± 0.58%
Structure (SMILES): O=c1cc(CO)occ1O [Kojic acid, reference compound]
